Patent US20060008849A1, “Methods for measuring chloride channel conductivity” (priority 2004, published 2006)

What was measured:
human GABAA channel = molecular target: T1, human GABAA channel (UniProt P18508+P28472+P62813); test: Sandell-Kolthoff (SK) assay on the outwardly rectifying GABAA receptor (iodide efflux); type: cell-based; conditions: IC50, decrease of GABAA channel conductivity
T1 construct: host or cells: ATCC CRL-2029 (WSS-1, HEK293-derived, by own knowledge)
Experimental: In addition, the iodine loading buffer consisting of 150 mM NaI, 2 mM CaCl2, 0.8 mM NaH2PO4, 1 mM of MgCl2, and 5 mM of IK, 2% FBS (# 35-010-AV, CELLGRO, VA) pH7.4, was prepared by mixing and dissolving each described component into purified water, and adjusting the pH accordingly.
Cell line expressing human GABAA (Adenovirus type) was obtained from the American Type Culture Collection (ATCC, Cat No. CRL-2029). Cells were grown in supplemented DMEM medium consisting of DMEM medium (#10-017-CV, CELLGRO, VA), 4 mM L-glutamine, 1.5 g/L sodium bicarbonate, 4.5 g/L glucose, 1.0 mM sodium pyruvate, and 10% fetal bovine serum (# 35-010-AV, CELLGRO, VA)
Cells in supplemented DMEM medium (200 μl, approx. 250,000 cells/ml) were added to each well of a D-lysine coated 96-well plate (Corning, Cat No. 3667), and were incubated overnight in a tissue culture incubator at 37° C. under 90% air/10% CO2. Then, the supplemented DMEM medium was removed with a multichannel pipettor, and 200 μl iodine-loading buffer was added to each well with Rapid Plate™ (Zymark, MA). Cells were incubated for 2-4 hours at 37° C. under 90% air/10% CO2, and were subsequently washed with phosphate buffer saline (DPBS, Invitrogen, CA), or culture medium. […] The amount of I^− in the lysed cells was measured by the SK assay procedure described in Example 1.
IC50s were calculated with IDBS XL-fit model 205 (IDBS, UK).

human CFTR channel = test: Sandell-Kolthoff (SK) assay on the outwardly rectifying CFTR channel, HTB-79 cells; type: cell-based
Experimental: HTB-79 cell line intrinsically expressing the human CFTR channel was obtained from ATCC. The CRL-1918 cell line, having a defective CFTR channel, was also obtained from ATCC. Cells were grown in Iscove's modified Dulbecco's medium consisting of Iscove's modified medium (CELLGRO, VA) and 4 mM L-glutamine, 1.5 g/L sodium bicarbonate, and 20% FBS (CELLGRO, VA). HTB-79 cells in Iscove's modified Dulbecco's medium (200 μl, approx. 500,000 cells/ml) were added to each well of a costar 96-well plate (Corning Costar, NY), and were incubated overnight in a tissue culture incubator at 37° C. under 90% air/5% CO2. Then, the Iscove's modified Dulbecco's medium was removed and 200 μl of iodine-loading buffer was added to each well of the plate. Cells were incubated for 2-4 hours at 37° C. under 90% air/5% CO2 and washed with DPBS (Invitrogen, CA) or culture medium. DPBS (100-200 μl) was added to each well. […] After the cells were incubated at room temperature for an additional 5 minutes, they were separated from the suspending buffer, and were lysed with 100 μl of cell lysis buffer (1% Triton X-100). The amount of I^− in the lysed cells was measured by the SK assay procedure described in Example 1. […] Forskolin stimulated adenylate cyclase activity resulting in increased level of cAMP, which in turn activated CFTR channel.

T1 sequence (P62813 28-455): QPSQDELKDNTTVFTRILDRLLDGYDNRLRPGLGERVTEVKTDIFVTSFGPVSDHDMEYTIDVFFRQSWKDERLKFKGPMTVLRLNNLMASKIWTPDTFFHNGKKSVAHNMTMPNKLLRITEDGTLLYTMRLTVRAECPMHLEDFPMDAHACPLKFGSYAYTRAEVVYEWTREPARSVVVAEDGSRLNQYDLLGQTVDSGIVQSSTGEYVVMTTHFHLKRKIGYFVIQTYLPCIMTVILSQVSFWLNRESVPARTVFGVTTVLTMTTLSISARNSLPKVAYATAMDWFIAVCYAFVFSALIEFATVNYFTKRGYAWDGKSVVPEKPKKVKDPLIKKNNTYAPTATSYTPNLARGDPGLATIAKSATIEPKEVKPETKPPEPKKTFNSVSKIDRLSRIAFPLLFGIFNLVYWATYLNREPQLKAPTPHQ
T1 sequence (P28472 26-473): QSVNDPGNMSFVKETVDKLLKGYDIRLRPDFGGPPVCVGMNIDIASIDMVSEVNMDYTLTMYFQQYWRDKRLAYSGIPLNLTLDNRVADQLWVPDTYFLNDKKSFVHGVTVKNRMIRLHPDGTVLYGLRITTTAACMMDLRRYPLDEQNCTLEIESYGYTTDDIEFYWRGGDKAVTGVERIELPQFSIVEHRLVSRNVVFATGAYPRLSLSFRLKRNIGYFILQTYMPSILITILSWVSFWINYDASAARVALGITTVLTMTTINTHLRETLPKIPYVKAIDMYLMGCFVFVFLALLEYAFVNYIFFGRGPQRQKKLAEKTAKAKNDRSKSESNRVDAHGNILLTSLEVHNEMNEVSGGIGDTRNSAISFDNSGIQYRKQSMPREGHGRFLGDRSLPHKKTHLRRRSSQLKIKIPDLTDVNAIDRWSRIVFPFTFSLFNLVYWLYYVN
T1 sequence (P18508 39-466): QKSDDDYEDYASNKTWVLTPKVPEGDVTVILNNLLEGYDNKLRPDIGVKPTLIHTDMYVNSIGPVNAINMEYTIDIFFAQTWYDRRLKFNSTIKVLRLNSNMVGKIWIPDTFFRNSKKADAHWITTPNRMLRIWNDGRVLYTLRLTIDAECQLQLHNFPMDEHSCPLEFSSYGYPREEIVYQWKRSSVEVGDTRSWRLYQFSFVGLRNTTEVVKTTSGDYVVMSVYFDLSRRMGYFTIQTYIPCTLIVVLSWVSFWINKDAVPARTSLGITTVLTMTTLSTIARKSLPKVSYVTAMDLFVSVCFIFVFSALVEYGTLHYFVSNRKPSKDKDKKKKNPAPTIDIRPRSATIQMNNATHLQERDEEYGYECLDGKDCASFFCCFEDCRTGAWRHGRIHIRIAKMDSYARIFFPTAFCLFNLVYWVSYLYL

EC50 (human CFTR channel; one-half of activity with 100 μM Forskolin, read-out: EC50 for Forskolin, activation of CFTR channel) [nM] | SMILES | IC50 (human GABAA channel; in the presence of 30 μM GABA) [µM] | IC50 (human GABAA channel; in the presence of 300 μM GABA) [µM] | lowest concentration at which activation of CFTR was detected (human CFTR channel) [nM]
 | CN1CCc2cc3c(cc2[C@H]1[C@@H]1OC(=O)c2c1ccc1c2OCO1)OCO3 [Bicuculline] | ~1 | ~50 | 
1000 | C=C[C@@]1(C)CC(=O)[C@]2(O)[C@@]3(C)[C@@H](O)CCC(C)(C)[C@@H]3[C@H](O)[C@H](OC(C)=O)[C@@]2(C)O1 [Forskolin] |  |  | 300
